pEC50: −log10 of the molar value. Where “and” joins values, the source holds several entries; their conditions need not be identical. Identical values can stand only once.
System: T47D cells
Experiment: T47D cell proliferation assay (BrdU incorporation)
Format: cell-based
Details: half-maximal increase in BrdU incorporation in T47D cells; individual studies
Experimental: 3. T47D Cell Proliferation Assay
The objective of this assay is the determination of progestational and antiprogestational potency by using a cell proliferation assay in T47D cells. A compound's effect on DNA synthesis in T47D cells is measured.
DMEM:F12 (1:1) (GIBCO, BRL) supplemented with 10% (v/v) fetal bovine serum (not heat-inactivated), 100 U/ml penicillin, […], and 2 mM GlutaMax (GIBCO, BRL).
Minimum Essential Medium (MEM) (#51200-038GIBCO, BRL) phenol red-free supplemented with 0.5% charcoal stripped fetal bovine serum, 100 U/ml penicillin, 200 mg/ml streptomycin, and 2 mM GlutaMax (GIBCO, BRL).
Stock T47 D cells are maintained in growth medium. For BrdU incorporation assay, cells are plated in 96-well plates (Falcon, Becton Dickinson Labware) at 10,000 cells/well in growth medium. […]
At the end of BrdU labeling, the medium is removed and BrdU incorporation is measured using a cell proliferation ELISA kit (#RPN 250, Amersham Life Science) according to manufacturer's instructions. […] Then 25 μl of 1 M sulfuric acid is added to each well to stop color reaction and optical density is read in a plate reader at 450 nm within 5 min.
Square root-transformed data are used for analysis of variance and nonlinear dose response curve fitting for both agonist and antagonist modes. […] EC50 or IC50 values are calculated from the retransformed values. […]

SMILES	pEC50
C[C@H](O)C(=O)[C@@]1(C)CC[C@H]2[C@@H]3CCC4=CC(=O)CCC4=C3CC[C@@]21C [Trimegestone]	10.77 and 10.85 and 10.72
CC(=O)O[C@]1(C(C)=O)CC[C@H]2[C@@H]3C[C@H](C)C4=CC(=O)CC[C@]4(C)[C@H]3CC[C@@]21C [MPA, medroxyprogesterone acetate]	10.72
